Data from patent US20240132559A1, “COMPOSITIONS AND METHODS FOR MODULATING MYC EXPRESSION” (FLAGSHIP PIONEERING INNOVATIONS V, INC., priority 2020, published 2024).

Key:
MYC = MYC mRNA expression by qPCR in human lung cancer cell lines after LNP transfection; type: cell-based
Experimental: Viability was measured using the CellTiter-GLO® assay kit from Promega according to manufacturer's protocol. RNA was isolated from three biological replicates, using the Rneasy® Plus 96-well Kit (Qiagen) following the Manufacturer's protocol. RNA samples were retrotranscribed to cDNA using LunaScript® RT SuperMix Kit (NEB) and analyzed by quantitative PCR (qPCR) (in technical triplicates) using a MYC specific TaqMan™ primer/probe set assay with the TaqMan™ Fast Advanced Master Mix (Thermo Scientific). MYC expression was quantified relative to the expression of GAPDH reference genes using the ΔΔCt method, the untreated and dCas9(no-effector) samples were used as calibrators.
(§1) Guide RNAs (Table 13) were designed across the lung super-enhancer region and tested in combination with the KRAB repressor protein conjugated to an enzymatically dead CAS9. The effector mRNA and guide RNAs were co-delivered using LNP delivery with SSOP with mRNA delivery of GFP as a negative control. NCSLC cell line A549 were seeded in 96-well plates in growth media (10000 cells/well). LNP formulations (2.5 ug/ml) were then added to the cells to transfect the effector mRNA/guide RNA then incubated for 72 hours. RNA was isolated from three biological replicates, using the Rneasy® Plus 96-well Kit (Qiagen) following the Manufacture's protocol. RNA samples were retrotranscribed to cDNA using LunaScript® RT SuperMix Kit (NEB) and analyzed by quantitative PCR (qPCR) (in technical triplicates) using a MYC specific TaqMan™ primer/probe set assay with the TaqMan™ Fast Advanced Master Mix (Thermo Scientific). MYC expression was quantified relative to the expression of GAPDH reference genes using the ΔΔCt method, the untreated samples were used as calibrators.
as §1, with “GuideRNAs” for “Guide RNAs”, “MC3” for “SSOP”
Guide RNAs (GD-29833 and GD-29914) targeted to the MYC super-enhancer were tested in combination with repressor proteins including the histone methyltransferase EZH2 (alone or in conjunction with KRAB) and the DNA methyltransferase MQ1 conjugated to an enzymatically dead CAS9. The effector mRNA and guide RNAs were co-delivered using LNP delivery with SSOP with mRNA delivery of GFP as a negative control. NCSLC cell lines A549 or NCI-H2009 were seeded in 96-well plates in growth media (10000 cells/well). LNP formulations (2.5 ug/ml) were then added to the cells to transfect the effector mRNA/guide RNA then incubated for 72 hours. RNA was isolated from three biological replicates, using the Rneasy® Plus 96-well Kit (Qiagen) following the Manufacture's protocol. RNA samples were retrotranscribed to cDNA using LunaScript® RT SuperMix Kit (NEB) and analyzed by quantitative PCR (qPCR) (in technical triplicates) using a MYC specific TaqMan′ primer/probe set assay with the TaqMan™ Fast Advanced Master Mix (Thermo Scientific). MYC expression was quantified relative to the expression of GAPDH reference genes using the ΔΔCt method, the untreated samples were used as calibrators. […]

A549 cells [1] = assay: A549 cell viability, ZF9-MQ1 alone and with BET or MEK inhibitors (CellTiter-GLO); type: cell-based, human; conditions: 72-hour incubation, single agent
Experimental: This example evaluates the effect of ZF9-MQ1 construct on A549 cell viability when used in combination with varying concentrations of JQ1 inhibitor.
(§2) A549 cells were seeded at 4,000 cells per well in duplicate plates for cell viability analysis. The 96-well plates were treated in triplicate with GFP or ZF9-MQ1 loaded LNPs at 0.5 ug/mL or 1.0 μg/mL in combination with increasing concentrations of the BET inhibitor JQ1 (concentrations up to 6.25 uM) and incubated. Untreated cells and GFP treated cells were used as controls. After 72-hour incubation, one 96-well plate was lysed with CellTiter-GLO® and luminescence was quantified using the GloMax® Discovery plate reader.
This example evaluates the effect of ZF9-MQ1 construct on A549 cell viability when used in combination with varying concentrations of BET762 inhibitor.
as §2, with “μg/mL” for “ug/mL”, “concentrations (concentrations up to 1.25 uM)” for “concentrations”, “BET762” for “JQ1 (concentrations up to 6.25 uM)”
This example evaluates the effect of ZF9-MQ1 construct on A549 cell viability when used in combination with varying concentrations of BET inhibitor, Birabresib.
as §2, with “μg/mL” for “ug/mL”, “concentrations (concentrations up to 0.625 uM for 0.5 μg/ml ZF9-MQ1 treated cells and up to 0.313 uM for 1.0 μg/ml ZF9-MQ1 treated cells)” for “concentrations”, “Birabresib” for “JQ1 (concentrations up to 6.25 uM)”
This example evaluates the effect of ZF9-MQ1 construct on A549 cell viability when used in combination with varying concentrations of MEK inhibitor, Trametinib.
as §2, with “μg/mL” for “ug/mL”, “concentrations” for “concentrations of the BET inhibitor JQ1”, “0.05” for “6.25”, “uM) of the MEK inhibitor Trametinib” for “uM)”, “Untreated cells and GFP treated cells were used as controls.” left out

A549 cells [2] = assay: A549 viability with ZF9-MQ1 and small molecule inhibitors, alone and combined; type: cell-based, human; conditions: each agent separately
SKHEP1 and Hep 3B cells = assay: IC50 of sorafenib or JQ1 in combination with bi-cistronic ZF9-MQ1_ZF3-KRAB; type: cell-based, human; conditions: with bi-cistronic ZF9-MQ1_ZF3-KRAB at 0.6 and 0.1 ug/ml
Hep 3B cells = assay: JQ1 dose response viability with bi-cistronic ZF9-MQ1_ZF3-KRAB (CellTiter-GLO); type: cell-based; conditions: Homo sapiens, Hep3B, 72 h
From the text: (§3) This example evaluates the efficacy of bi-cistronic ZF9-MQ1_ZF3-KRAB in combination with JQ1 (BET inhibitor) in multiple HCC cell lines. […] Later generation BET inhibitors are currently being evaluated in the clinic for hematologic indications; however, their toxicity profile have limited their use. Combination treatments that can increase the potency of BET inhibitors at reduced dose levels could improve BET inhibitor tolerability.
(§4) To evaluate potential synergy between bi-cistronic ZF9-MQ1_ZF3-KRAB and JQ1, Hep 3B or SK-HEP-1 cells were plated in 96 well plates at 10,000 cells per well. Cells were then treated with JQ1 with a dose range between 0.1 and 25 μM, with serial dilution of 1:2. Lipid mix carrying bi-cistronic ZF9-MQ1_ZF3-KRAB was then added to a set of the wells at a dose of 0.1 or 0.6 μg/mL. A set of cells was treated with JQ1 alone to use as control. Following 72-hour treatment, cells were lysed with the CellTiter-GLO® reagent and luminescence was quantified using the Glo Max. Relative cell viability was calculated by averaging the untreated values and dividing each experimental luciferase value by that average.

SK-HEP-1 cells = assay: as above; type: cell-based; conditions: Homo sapiens, SK-HEP1, 72 h, SKHEP-1, 72-hour
From the text: as §3, §4

[3] = A549, guide delivered with KRAB or MQ1, 120 hours
[4] = A549, guide delivered with dCAS9-KRAB effector mRNA, MC3 LNP 2.5 ug/ml, 72 hours
[5] = A549, guide delivered with dCAS9-KRAB effector mRNA, SSOP LNP 2.5 ug/ml, 72 hours
[6] = A549, guide delivered with dCas9 effectors EZH2, EZH2-KRAB and MQ1, 72 hours
[7] = NCI-H2009, guide delivered with KRAB or MQ1, 120 hours
[8] = NCI-H2009, guide delivered with dCas9 effectors EZH2, EZH2-KRAB and MQ1, 72 hours
[9] = bi-cistronic ZF9-MQ1_ZF3-KRAB 0 μg/ml
[10] = bi-cistronic ZF9-MQ1_ZF3-KRAB 0.1 μg/ml
[11] = bi-cistronic ZF9-MQ1_ZF3-KRAB 0.6 μg/ml

Compound	MYC mRNA down-regulation (in words) (MYC; [3])	MYC mRNA down-regulation (in words) (MYC; [4])	MYC mRNA down-regulation (in words) (MYC; [5])	MYC mRNA down-regulation (in words) (MYC; [6])	MYC mRNA down-regulation (in words) (MYC; [7])	MYC mRNA down-regulation (in words) (MYC; [8])	A549 cell viability, each agent separately (A549 cells [1])	inhibition of A549 cell viability, single agent (A549 cells [2])	other results
GD-29914: guide RNA to MYC lung super-enhancer, SEQ ID NO: 108 (guide CAGCACTCTCGCTGACCGCA; listed as DNA, chemistry not given here; listed as Homo sapiens)	significantly downregulate MYC mRNA levels	effectively downregulate MYC mRNA levels	effectively downregulate MYC mRNA levels	effectively downregulate MYC mRNA levels	significantly downregulate MYC mRNA levels	effectively downregulate MYC mRNA levels			
CC(=O)Nc1cccc(-n2c(=O)n(C3CC3)c(=O)c3c(Nc4ccc(I)cc4F)n(C)c(=O)c(C)c32)c1 [trametinib]							inhibited cell viability	inhibited cell viability of A549 cells	
CCNC(=O)C[C@@H]1N=C(c2ccc(Cl)cc2)c2cc(OC)ccc2-n2c(C)nnc21 [BET762]							inhibited cell viability	inhibited cell viability of A549 cells	
Cc1sc2c(c1C)C(c1ccc(Cl)cc1)=N[C@@H](CC(=O)OC(C)(C)C)c1nnc(C)n1-2 [JQ1]							inhibited cell viability	inhibited cell viability of A549 cells	IC50 of JQ1 (SKHEP1 and Hep 3B cells; Hep 3B): reduced; IC50 of JQ1 (SKHEP1 and Hep 3B cells; SKHEP1): reduced; IC50 (Hep 3B cells; [9]): 6600 nM; IC50 (Hep 3B cells; [10]): 600 nM; IC50 (Hep 3B cells; [11]): 200 nM; IC50 (SK-HEP-1 cells; [9]): > 25000 nM; IC50 (SK-HEP-1 cells; [10]): 1900 nM; IC50 (SK-HEP-1 cells; [11]): 1100 nM
Cc1sc2c(c1C)C(c1ccc(Cl)cc1)=N[C@@H](CC(=O)Nc1ccc(O)cc1)c1nnc(C)n1-2 [birabresib]							inhibited cell viability	inhibited cell viability of A549 cells	
GD-29833: guide RNA to MYC lung super-enhancer, SEQ ID NO: 96 (guide TGCCACTTCCCCACTAACCC; listed as DNA, chemistry not given here; listed as Homo sapiens)	significantly downregulate MYC mRNA levels	effectively downregulate MYC mRNA levels	effectively downregulate MYC mRNA levels	effectively downregulate MYC mRNA levels	significantly downregulate MYC mRNA levels	effectively downregulate MYC mRNA levels			
